Data from ChEMBL document CHEMBL1136125, “Comparative molecular field analysis (CoMFA) of phthalazine derivatives as phosphodiesterase IV inhibitors” (Bioorg Med Chem Lett, 2003).

What was measured:
Phosphodiesterase 4 [1] = target: T1, Phosphodiesterase 4 (Homo sapiens, UniProt P27815+Q08499+Q07343+Q08493); assay: Inhibitory concentration against phosphodiesterase 4.; format: protein assay
Phosphodiesterase 4 [2] = target: T1, Phosphodiesterase 4; assay: In vitro inhibitory concentration against phosphodiesterase 4.; format: protein assay

SMILES	Log IC50 (Phosphodiesterase 4 [1])	IC50 (Phosphodiesterase 4 [2])
CCc1nnc(Cc2c(Cl)cncc2Cl)c2cc(OC3CCCC3)c(OC)cc12	-7.12	75 nM
COc1ccc2c(Cc3c(Cl)cncc3Cl)nncc2c1OCCCCCc1ccccc1	-7.25	–
COc1cc2c(C)nnc(Cc3c(Cl)cncc3Cl)c2cc1OC1CCCC1	-6.84	146 nM
COc1ccc2c(Cc3c(Cl)cncc3Cl)nncc2c1OC1CCCO1 (stereo unspecified)	–	153 nM
